Data from patent US4668499A, “Process for manufacturing hydrogen peroxide” (E. I. Du Pont de Nemours and Company, priority 1986, dated 1987).
Where two headings read alike, the source gives them in different places.

What was measured:
[1] = pKa of the amines; type: physicochemical; settings: in 50/50 methanol/water; acid titration using glass electrode
Source text: ^(1) pKa values in water from Patai, S., "The Chemistry of Amino
Groups,", Interscience Publishers, New York, New York (1968), Chapter 4.
^(2) pKa values in 50/50 methanol/water determined by acid
titration using glass electrode.

[2] = activity in anthrone reoxidation (disappearance of 2-butylanthrone in fortified working solution under oxygen; liquid chromatography); settings: 0.1 weight % amine, 60° C.; for % Original Amount Remaining After 24 Hours: 2-Butylanthrone: 2 weight % 2-butylanthrone, control (no amine) 76
[3] = amine stability to oxidation under plant extraction-stage conditions (35 weight % aqueous hydrogen peroxide, 60° C., 24 hours; gas chromatography); settings: 0.1 weight % amine in working solution, shaken with equal volume 35 weight % aqueous hydrogen peroxide
[4] = 35% aqueous hydrogen peroxide
[5] = cited from earlier work
[6] = pilot plant cyclic anthraquinone process with amine addition
Protocol: A pilot plant facility, sized to be approximately 1/1000 that of a commercial unit, was charged with 1.5M lbs. of working solution withdrawn from the commercial unit. The working solution comprised a mixture of butyl and amyl anthraquinones and tetrahydroanthraquinones dissolved in a Cyclosol®/diisobutylcarbinol solvent. Using plant Pd/Al2 O3 slurry catalyst in the hydrogenator, operation of the pilot plant was commenced with a working solution flow of about 1.5 g.p.m. and at about 50° C. The average titer of the reduced working solution leaving the hydrogenator was about 38. "Titer" is an industrial term used as a measure of the depth or degree of reduction of the working solution, that is, the amount of hydroquinone formed expressed as LB. MOLS/10,000 gallons of working solution. Thirty-eight titer represents driving conditions for a commercial facility which is usually operated at 32 titer or less. As operating titer is increased, experience has shown that hydrogen peroxide production is increased but at the expense of increased quinone degradation and quinone use.
Over an initial operating period of two months in the pilot plant without amine addition, the anthrone content of the working solution increased steadily from 0.2 wt. % to 0.7 wt. % and was accompanied by a corresponding decrease in the quinone content of the working solution. Then, 0.05 wt. % of N,N-di-n-butylaniline was added to the pilot plant working solution hold tank. Over the next 36 hours a rapid drop in the anthrone content to about 0.2 wt. % was observed.
Operation of the pilot plant was continued at the 38 titer level for a further four and a half months with a daily production of about 250 lbs. hydrogen peroxide. The N,N-di-n-butylaniline content of the working solution was maintained at about 0.03 wt. % by means of small daily additions. […] Other operating parameters such as yield and product quality were unaffected.

[7] = in water, from Patai, The Chemistry of Amino Groups (1968), Chapter 4

Structure (SMILES) | pKa [1] | % Original Amount Remaining After 24 Hours: 2-Butylanthrone [2] [%] | % Original Amount Remaining After 24 Hours: Amine [3] [%] | also measured
CCCCN(CCCC)c1ccc(C)cc1 [Example 10, N,N--Di-n-butyl-4-methylaniline] | 5.8 | 10 | 71 | –
CCCCCCN(CCCCCC)c1ccccc1 [Example 6, N,N--Di-n-hexyl-aniline] | 5.0 | 36 | 86 | –
c1ccc(CN(Cc2ccccc2)Cc2ccccc2)cc1 [Example 4, Tribenzylamine, reference compound] | – | 64 | 83 | –
Cc1cccc(N)c1 [Example 2, m-Toluidine] | – | – | – | % Original Amount Remaining After 24 Hours: Amine [4]: 7%; pKa ([5]; water): 4.7
c1ccc(Nc2ccccc2)cc1 [Example 3, Diphenylamine, reference compound] | – | 82 | 96 | pKa [5, 7]: 0.9
CCCCN(CCCC)CCCC [Example 5, Tributylamine, reference compound] | – | 0 | 2 | pKa [5, 7]: 10.9; Reaction was complete in (time) ([2]; 2-butylanthrone reoxidation): three
CCCCN(CCCC)c1ccc(C)c(C)c1 [Example 12, N,N--Di-n-butyl-3,4-dimethylaniline] | 6.2 | 8 | 61 | –
CCN(CC)c1cccc(C)c1 [Example 11, N,N--Diethyl-3-methylaniline] | 6.0 | 5 | 55 | –
CCCCN(CCCC)c1ccccc1 [Example 7, N,N-di-n-butylaniline] | 5.2 | 13 | 76 | anthrone content of the working solution after amine addition ([6]; 0.05 wt. % amine added, over the next 36 hours, from 0.7 wt. %, about 50° C., titer about 38): about 0.2 wt. %; hydrogenation activity ([6]; after addition of 0.05 wt. % amine): An improvement in hydrogenation activity was also noted; loss of quinones ([6]; amine maintained at about 0.03 wt. %, four and a half months, 38 titer): no measurable loss of quinones; pKa [5, 7]: 6.2
CCN(CC)c1ccccc1C [Example 8, N,N--Diethyl-2-methylaniline] | 5.3 | 15 | 43 | –
CCCCCCCCc1ccc(N(CCCC)CCCC)cc1 [Example 9, N,N--Di-n-butyl-4-octylaniline] | 5.6 | 11 | 68 | –
